Patent US20250171437A1 (Agios Pharmaceuticals,Inc., priority 2022, published 2025)

What follows are compounds tested against T1, human PAH with the R408W mutation (A375 R408W cells) (Homo sapiens, UniProt P00439, R408W) (assay: Cell Based Phenylalanine Flux Assay). Settings: A375 R408W cells; 24 hrs with compound, then 20 μM sepiapterin and 800 μM 13C9,15N-Phenylalanine for 4 hours; 13C-Tyrosine by LC-MS; average where tested multiple times.
T1 construct: expressed in transfected cells
T1 sequence (P00439 1-452 R408W): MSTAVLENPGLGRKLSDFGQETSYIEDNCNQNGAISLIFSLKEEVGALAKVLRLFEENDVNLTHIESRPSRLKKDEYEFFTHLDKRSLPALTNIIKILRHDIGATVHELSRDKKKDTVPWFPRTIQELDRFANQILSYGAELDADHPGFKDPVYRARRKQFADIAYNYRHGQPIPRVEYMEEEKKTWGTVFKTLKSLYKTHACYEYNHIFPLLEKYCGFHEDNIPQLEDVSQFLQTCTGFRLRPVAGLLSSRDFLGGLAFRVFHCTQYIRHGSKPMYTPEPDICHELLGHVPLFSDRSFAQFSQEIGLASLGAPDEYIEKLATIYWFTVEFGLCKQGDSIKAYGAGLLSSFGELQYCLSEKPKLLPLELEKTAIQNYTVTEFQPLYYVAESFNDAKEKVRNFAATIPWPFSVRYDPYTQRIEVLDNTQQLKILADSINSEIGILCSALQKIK
Outline: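 AC50 is derived from LC-MS of 13C-tyrosine in the media after a 4 h pulse of 800 μM 13C9,15N-phenylalanine plus 20 μM sepiapterin. The A375 R408W PAH cells had received duplicate 10-point, 2-fold compound dilutions (0.5% DMSO) for 24 h beforehand.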

AC50 [nM]	Compound
≤ 500	Cc1cccc2nc([C@@H]3c4nc[nH]c4CCN3C(=O)c3oc(C(C)(C)O)nc3C(F)F)oc12 [Example 392, (S)-(4-(difluoromethyl)-2-(2-hydroxypropan-2-yl)oxazol-5-yl)(4-(7-methylbenzo[d]oxazol-2-yl)-6,7-dihydro-1H-imidazo[4,5-c]pyridin-5(4H)-yl)methanone]
500 to 1000	COCc1ccc2c(C(=O)N3CCc4[nH]cnc4[C@H]3c3nc4c(F)cccc4o3)cnn2c1 [Example 275, (S)-(4-(4-fluorobenzo[d]oxazol-2-yl)-6,7-dihydro-1H-imidazo[4,5-c]pyridin-5(4H)-yl)(6-(methoxymethyl)pyrazolo[1,5-a]pyridin-3-yl)methanone]
500 to 1000	C[C@H](O)c1nc(C(F)F)c(C(=O)N2CCc3[nH]cnc3[C@H]2c2nc3ccc(F)cc3o2)o1 [Example 231, (4-(difluoromethyl)-2-((S)-1-hydroxyethyl)oxazol-5-yl)((S)-4-(6-fluorobenzo[d]oxazol-2-yl)-6,7-dihydro-1H-imidazo[4,5-c]pyridin-5(4H)-yl)methanone]
1000 to 5000	Cn1cc(-c2nnc(C(=O)N3CCc4[nH]cnc4[C@@H]3c3nc4cc(F)ccc4o3)o2)c(C(F)(F)F)n1 [Example 117, (R)-(4-(5-fluorobenzo[d]oxazol-2-yl)-6,7-dihydro-1H-imidazo[4,5-c]pyridin-5(4H)-yl)(5-(1-methyl-3-(trifluoromethyl)-1H-pyrazol-4-yl)-1,3,4-oxadiazol-2-yl)methanone]
500 to 1000	O=C(c1nnc(-c2ccccn2)o1)N1CCc2[nH]cnc2[C@H]1c1nc2ccc(F)c(F)c2o1 [Example 546, (S)-(4-(6,7-difluorobenzo[d]oxazol-2-yl)-6,7-dihydro-1H-imidazo[4,5-c]pyridin-5(4H)-yl)(5-(pyridin-2-yl)-1,3,4-oxadiazol-2-yl)methanone]
≤ 500	CC(C)(O)c1nc(C(F)(F)F)c(C(=O)N2CCc3[nH]cnc3[C@H]2c2nc3ccc(F)cc3o2)o1 [Example 255, (S)-(4-(6-fluorobenzo[d]oxazol-2-yl)-6,7-dihydro-1H-imidazo[4,5-c]pyridin-5(4H)-yl)(2-(2-hydroxypropan-2-yl)-4-(trifluoromethyl)oxazol-5-yl)methanone]
≥ 5000	O=C(c1cnn2cc(Br)c(Cl)cc12)N1CCc2[nH]cnc2[C@@H]1c1nc2cc(F)ccc2o1 [Example 166, (R)-(6-bromo-5-chloropyrazolo[1,5-a]pyridin-3-yl)(4-(5-fluorobenzo[d]oxazol-2-yl)-6,7-dihydro-1H-imidazo[4,5-c]pyridin-5(4H)-yl)methanone]
500 to 1000	O=C(c1nnc(-c2ccc(F)c(F)c2)o1)N1CCc2[nH]cnc2[C@H]1c1nc2cc(F)ccc2o1 [Example 75, (S)-(5-(3,4-difluorophenyl)-1,3,4-oxadiazol-2-yl)(4-(5-fluorobenzo[d]oxazol-2-yl)-6,7-dihydro-1H-imidazo[4,5-c]pyridin-5(4H)-yl)methanone]
500 to 1000	Cn1ccc(-c2nnc(C(=O)N3CCc4[nH]cnc4[C@@H]3c3nc4ccccc4o3)o2)n1 [Example 844, (R)-(4-(benzo[d]oxazol-2-yl)-6,7-dihydro-1H-imidazo[4,5-c]pyridin-5(4H)-yl)(5-(1-methyl-1H-pyrazol-3-yl)-1,3,4-oxadiazol-2-yl)methanone]
500 to 1000	COc1cccc2nc([C@H]3c4nc[nH]c4CCN3C(=O)c3cc(C(F)F)nn3C)oc12 [Example 778, (R)-(3-(difluoromethyl)-1-methyl-1H-pyrazol-5-yl)(4-(7-methoxybenzo[d]oxazol-2-yl)-6,7-dihydro-1H-imidazo[4,5-c]pyridin-5(4H)-yl)methanone]
500 to 1000	Cn1ccc(-c2nnc(C(=O)N3CCc4[nH]cnc4[C@@H]3c3nc4cccc(F)c4o3)o2)n1 [Example 338, (R)-(4-(7-fluorobenzo[d]oxazol-2-yl)-6,7-dihydro-1H-imidazo[4,5-c]pyridin-5(4H)-yl)(5-(1-methyl-1H-pyrazol-3-yl)-1,3,4-oxadiazol-2-yl)methanone]
1000 to 5000	O=C(c1oc(-c2ccncn2)nc1C(F)F)N1CCc2[nH]cnc2[C@@H]1c1nc2cc(F)ccc2o1 [Example 525, (R)-(4-(difluoromethyl)-2-(pyrimidin-4-yl)oxazol-5-yl)(4-(5-fluorobenzo[d]oxazol-2-yl)-6,7-dihydro-1H-imidazo[4,5-c]pyridin-5(4H)-yl)methanone]
1000 to 5000	Cc1cc(C(=O)N2CCc3[nH]cnc3[C@@H]2c2nc3ccccc3o2)n(C)n1 [Example 780, (R)-(4-(benzo[d]oxazol-2-yl)-6,7-dihydro-1H-imidazo[4,5-c]pyridin-5(4H)-yl)(1,3-dimethyl-1H-pyrazol-5-yl)methanone]
500 to 1000	O=C(c1ocnc1C(F)F)N1CCc2[nH]cnc2[C@@H]1c1nc2cc(F)ccc2o1 [Example 52, (R)-(4-(difluoromethyl)oxazol-5-yl)(4-(5-fluorobenzo[d]oxazol-2-yl)-6,7-dihydro-1H-imidazo[4,5-c]pyridin-5(4H)-yl)methanone]
1000 to 5000	O=C(c1ccnn1C(F)(F)F)N1CCc2[nH]cnc2[C@@H]1c1nc2ccc(F)cc2o1 [Example 288, (R)-(4-(6-fluorobenzo[d]oxazol-2-yl)-6,7-dihydro-1H-imidazo[4,5-c]pyridin-5(4H)-yl)(1-(trifluoromethyl)-1H-pyrazol-5-yl)methanone]
1000 to 5000	C[C@H](O)c1nc(C(F)F)c(C(=O)N2CCc3[nH]cnc3[C@@H]2c2nc3ccc(F)cc3o2)o1 [Example 232, (4-(difluoromethyl)-2-((S)-1-hydroxyethyl)oxazol-5-yl)((R)-4-(6-fluorobenzo[d]oxazol-2-yl)-6,7-dihydro-1H-imidazo[4,5-c]pyridin-5(4H)-yl)methanone]
500 to 1000	Cn1cncc1-c1nc(C(F)(F)F)c(C(=O)N2CCc3[nH]cnc3[C@H]2c2nc3cc(F)ccc3o2)o1 [Example 791, (S)-(4-(5-fluorobenzo[d]oxazol-2-yl)-6,7-dihydro-1H-imidazo[4,5-c]pyridin-5(4H)-yl)(2-(1-methyl-1H-imidazol-5-yl)-4-(trifluoromethyl)oxazol-5-yl)methanone]
1000 to 5000	c1ccc2oc([C@H]3c4nc[nH]c4CN3c3nc4ccccc4o3)nc2c1 (single isomer, unassigned) [Example 932]
≥ 5000	O=C(c1cnn2cc(-c3ccccn3)ccc12)N1CCc2[nH]cnc2[C@@H]1c1nc2cc(F)ccc2o1 [Example 82, (R)-(4-(5-fluorobenzo[d]oxazol-2-yl)-6,7-dihydro-1H-imidazo[4,5-c]pyridin-5(4H)-yl)(6-(pyridin-2-yl)pyrazolo[1,5-a]pyridin-3-yl)methanone]
500 to 1000	Cn1nccc1-c1nnc(C(=O)N2CCc3[nH]cnc3[C@H]2c2nc3cc(F)ccc3o2)o1 [Example 131, (S)-(4-(5-fluorobenzo[d]oxazol-2-yl)-6,7-dihydro-1H-imidazo[4,5-c]pyridin-5(4H)-yl)(5-(1-methyl-1H-pyrazol-5-yl)-1,3,4-oxadiazol-2-yl)methanone]
≤ 500	Cc1ccc2nc([C@@H]3c4nc[nH]c4CCN3C(=O)c3oc(C(C)(C)O)nc3Br)oc2c1 [Example 439, (S)-(4-bromo-2-(2-hydroxypropan-2-yl)oxazol-5-yl)(4-(6-methylbenzo[d]oxazol-2-yl)-6,7-dihydro-1H-imidazo[4,5-c]pyridin-5(4H)-yl)methanone]
1000 to 5000	O=C(CC1CC(F)C1)N1CCc2[nH]cnc2[C@@H]1c1nc2cc(F)ccc2o1 (stereo partly drawn) [Example 60, (R)-1-(4-(5-fluorobenzo[d]oxazol-2-yl)-6,7-dihydro-1H-imidazo[4,5-c]pyridin-5(4H)-yl)-2-(3-fluorocyclobutyl)ethanone]
≤ 500	CC(F)(F)c1ncoc1C(=O)N1CCc2[nH]cnc2[C@H]1c1nc2cccc(F)c2o1 [Example 620, (S)-(4-(1,1-difluoroethyl)oxazol-5-yl)(4-(7-fluorobenzo[d]oxazol-2-yl)-6,7-dihydro-1H-imidazo[4,5-c]pyridin-5(4H)-yl)methanone]

Same assay, conditions: A375 cells expressing R408W PAH; 24 hrs with compound, then 20 μM sepiapterin and 800 μM 13C9,15N-Phenylalanine for 4 hours; 13C-Tyrosine by LC-MS; average where tested multiple times

AC50 [nM]	Compound
≥ 5000	O=C(c1cnn2cc(N3CCC4(CC3)CC4)ccc12)N1CCc2[nH]cnc2C1c1nc2cc(F)ccc2o1 (stereo not shown)
≥ 5000	CC(C)(O)c1nc(C(=O)N2CCc3[nH]cnc3C2c2nc3c(F)cccc3o2)no1 (stereo not shown)
1000 to 5000	Cc1ccc2oc(C3c4nc[nH]c4CCN3C(=O)c3cnn4cc(CN(C)C)ccc34)nc2c1 (stereo not shown)
≥ 5000	Cn1ccc(C(=O)N2CCc3[nH]cnc3C2c2nc3cc(F)ccc3o2)n1 (stereo not shown)
1000 to 5000	O=C(c1nnc(-c2ccn(C(F)F)n2)o1)N1CCc2[nH]cnc2C1c1nc2cc(C(F)(F)F)ccc2o1 (stereo not shown)
1000 to 5000	CN(C)CCOc1ccc2c(C(=O)N3CCc4[nH]cnc4C3c3nc4cc(F)ccc4o3)cnn2c1 (stereo not shown)
1000 to 5000	O=C(c1nnc(NC2CC2)o1)N1CCc2[nH]cnc2C1c1nc2cc(F)ccc2o1 (stereo not shown)

Compound	AC50 [nM]
NCCc1ccc2c(C(=O)N3CCc4[nH]cnc4C3c3nc4cc(F)ccc4o3)cnn2c1 (single isomer, unassigned) [4S enantiomer of 2-{3-[4-(5-fluoro-1,3-benzoxazol-2-yl)-1H,4]	≥ 5000
